Source: ChEMBL document CHEMBL1130174, “Pyrrolidine-3-carboxylic acids as endothelin antagonists. 2. Sulfonamide-based ETA/ETB mixed antagonists” (J Med Chem, 1997)

Tests used:
[1] = molecular target: T1, Endothelin receptor type B (Sus scrofa, UniProt P35463); assay: Ability to displace endothelin ([125I]ET-3) from endothelin B receptor derived from cerebellar tissue of porcine.
T1 sequence (P35463 whole entry): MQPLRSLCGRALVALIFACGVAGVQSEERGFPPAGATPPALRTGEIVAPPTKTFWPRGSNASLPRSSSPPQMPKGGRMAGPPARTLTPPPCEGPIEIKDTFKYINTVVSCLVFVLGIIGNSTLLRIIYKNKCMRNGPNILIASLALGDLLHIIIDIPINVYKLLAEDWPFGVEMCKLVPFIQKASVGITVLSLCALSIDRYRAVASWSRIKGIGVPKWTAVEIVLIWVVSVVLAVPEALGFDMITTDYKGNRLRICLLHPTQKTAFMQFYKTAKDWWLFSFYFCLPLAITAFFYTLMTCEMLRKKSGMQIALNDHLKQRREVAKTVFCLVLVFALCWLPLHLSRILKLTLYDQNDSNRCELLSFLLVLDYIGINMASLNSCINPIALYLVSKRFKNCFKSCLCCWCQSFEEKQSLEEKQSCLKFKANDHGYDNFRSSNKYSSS

Endothelin-1 receptor = molecular target: T2, Endothelin-1 receptor (Rattus norvegicus, UniProt P26684); assay: Ability to displace endothelin ([125I]ET1) from endothelin A receptor derived from MMQ cells of rodent.; format: cell-based, Rodentia sp.
T2 sequence (P26684 whole entry): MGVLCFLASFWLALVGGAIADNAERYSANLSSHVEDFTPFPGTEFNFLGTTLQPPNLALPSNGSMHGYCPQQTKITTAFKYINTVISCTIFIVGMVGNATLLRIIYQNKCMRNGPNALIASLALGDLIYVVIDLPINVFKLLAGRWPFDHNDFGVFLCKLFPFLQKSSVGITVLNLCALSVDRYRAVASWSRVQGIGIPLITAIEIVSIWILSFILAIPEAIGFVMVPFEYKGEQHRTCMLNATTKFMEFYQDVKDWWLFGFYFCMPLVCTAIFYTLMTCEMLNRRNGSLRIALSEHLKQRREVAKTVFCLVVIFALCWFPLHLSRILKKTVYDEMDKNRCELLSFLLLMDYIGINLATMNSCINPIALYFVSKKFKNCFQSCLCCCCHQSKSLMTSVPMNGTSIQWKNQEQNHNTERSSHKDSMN

[2] = Ratio of endothelin A receptor and endothelin B receptor.
[3] = Oral bioavailability in rat; format: ADME, organism-based; settings: in vivo
[4] = Half-life is obtained after intravenous dosing of rats.; format: ADME, organism-based; settings: rat, in vivo
[5] = Maximum drug concentration is determined after oral dosing in rats.; format: ADME, organism-based; parameters: route oral; settings: rat, in vivo
Rattus norvegicus = assay: Total drug exposure is determined after oral dosing in rats.; format: ADME, organism-based; parameters: concentration or dose not given beside the values; settings: in vivo
[6] = Half-life is obtained after oral dosing of rats.; format: ADME, organism-based; settings: rat, in vivo
[7] = molecular target: T3, Endothelin receptor type B (Homo sapiens, UniProt P24530); assay: Binding assay performed using human Endothelin B receptor (hETB) expressed in chinese hamster ovary cells(CHO); format: cell-based
T3 sequence (P24530 whole entry): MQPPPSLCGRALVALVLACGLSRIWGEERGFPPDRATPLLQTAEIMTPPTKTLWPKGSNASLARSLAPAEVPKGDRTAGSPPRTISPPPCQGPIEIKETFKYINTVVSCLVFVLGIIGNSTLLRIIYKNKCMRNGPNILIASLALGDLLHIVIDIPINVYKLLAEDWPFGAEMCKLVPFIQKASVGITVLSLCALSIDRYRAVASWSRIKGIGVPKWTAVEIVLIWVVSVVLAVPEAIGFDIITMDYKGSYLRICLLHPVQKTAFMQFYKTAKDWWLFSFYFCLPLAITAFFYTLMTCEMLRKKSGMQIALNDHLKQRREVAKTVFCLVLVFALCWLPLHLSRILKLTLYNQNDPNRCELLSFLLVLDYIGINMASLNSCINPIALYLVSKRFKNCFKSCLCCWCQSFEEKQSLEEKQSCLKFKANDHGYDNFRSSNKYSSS

[8] = molecular target: T3, Endothelin receptor type B; assay: Ability to block the ET-1-induced hydrolysis of inositol phosphate in Endothelin B receptor of chinese hamster ovary(CHO) cells.; format: functional

| Structure (SMILES) | IC50 [1] [nM] | IC50 (Endothelin-1 receptor) [nM] | Ratio [2] | also measured |
| --- | --- | --- | --- | --- |
| CCCCCS(=O)(=O)N(CCC)CCN1C[C@H](c2ccc3c(c2)OCO3)[C@@H](C(=O)O)[C@@H]1c1ccc(OC)cc1 | 4.1 | 0.57 | 7.2 |  |
| CCCN(CCN1C[C@H](c2ccc3c(c2)OCO3)[C@@H](C(=O)O)[C@@H]1c1ccc(OC)cc1)S(=O)(=O)CCCCl | 6.3 | 2 | 3.1 |  |
| CCCN(CCN1C[C@H](c2ccc3c(c2)OCO3)[C@@H](C(=O)O)[C@@H]1c1ccc(OC)c(F)c1)S(=O)(=O)CCC(C)C | 1.2 | 0.46 | 2.6 |  |
| CCCN(CCN1C[C@H](c2ccc3c(c2)OCO3)[C@@H](C(=O)O)[C@@H]1c1ccc(OC)cc1)S(=O)(=O)Cc1ccccc1 | 34 |  |  |  |
| COc1ccccc1Oc1c(NS(=O)(=O)c2ccc(C(C)(C)C)cc2)nc(-c2ncccn2)nc1OCCO [BOSENTAN] |  |  |  | bioavailability [3]: 30%; half-life [4]: 4 h |
| CCCCCCS(=O)(=O)N(CCC)CCN1C[C@H](c2ccc3c(c2)OCO3)[C@@H](C(=O)O)[C@@H]1c1ccc(OC)cc1 | 4.5 | 0.43 | 10 |  |
| CCCN(CCN1C[C@H](c2ccc3c(c2)OCO3)[C@@H](C(=O)O)[C@@H]1c1ccc(OC)cc1)S(=O)(=O)c1ccc(C)cc1 | 85 | 8.3 | 10 |  |
| CCCS(=O)(=O)N(C)CCN1C[C@H](c2ccc3c(c2)OCO3)[C@@H](C(=O)O)[C@@H]1c1ccc(OC)cc1 | 260 | 10 | 26 |  |
| CCCCCS(=O)(=O)N(CCC)CCN1C[C@H](c2ccc3c(c2)OCO3)[C@@H](C(=O)O)[C@@H]1c1ccc(OC)c(F)c1 (stereo in doubt; 15b) | 0.29 |  |  | Cmax [5]: 2400 ng/mL; AUC (Rattus norvegicus): 11200 ng·h/mL; bioavailability [3]: 54%; half-life [4]: 5 h; half-life [6]: 8.1 h; IC50 [7]: 0.28 nM; IC50 [8]: 1.28 nM |
| CCCCCCS(=O)(=O)N(CCC)CCN1C[C@H](c2ccc3c(c2)OCO3)[C@@H](C(=O)O)[C@@H]1c1ccc(OC)c(F)c1 (stereo in doubt; 15c) | 0.34 |  |  | Cmax [5]: 700 ng/mL; AUC (Rattus norvegicus): 2800 ng·h/mL; bioavailability [3]: 40%; half-life [4]: 3.3 h; half-life [6]: 6.4 h; IC50 [7]: 0.48 nM; IC50 [8]: 1.12 nM |
| CCCCN(CCCC)C(=O)CN1C[C@H](c2ccc3c(c2)OCO3)[C@@H](C(=O)O)[C@@H]1c1ccc(OC)cc1 |  |  |  | bioavailability [3]: 70% |
| CCCN(CCN1C[C@H](c2ccc3c(c2)OCO3)[C@@H](C(=O)O)[C@@H]1c1ccc(OC)cc1)S(=O)(=O)c1ccc(Cl)cc1 | 41 | 6.3 | 6.5 |  |
| CCCCCS(=O)(=O)N(CCC)CCN1C[C@H](c2ccc3c(c2)OCO3)[C@@H](C(=O)O)[C@@H]1c1ccc(OCOC)cc1 | 5.2 | 0.62 | 8.4 |  |
| CCCCCS(=O)(=O)N(CCC)CCN1C[C@H](c2ccc3c(c2)OCO3)[C@@H](C(=O)O)[C@@H]1c1ccc(OC)c(F)c1 (stereo in doubt; 13e) | 0.85 |  |  |  |
| CCCCCCS(=O)(=O)N(CCC)CCN1C[C@H](c2ccc3c(c2)OCO3)[C@@H](C(=O)O)[C@@H]1c1ccc(OC)c(F)c1 (stereo in doubt; 14b) | 1.5 |  |  |  |
| CCCCCS(=O)(=O)N(CCC)CCN1C[C@H](c2ccc3c(c2)OCO3)[C@@H](C(=O)O)[C@@H]1c1ccc(OC)c(OC)c1 | 73 | 2.3 | 32 |  |
| CCCCN(CCN1C[C@H](c2ccc3c(c2)OCO3)[C@@H](C(=O)O)[C@@H]1c1ccc(OC)cc1)C(=O)CCC | 850 | 20 | 43 |  |
| CCCCS(=O)(=O)N(CCC)CCN1C[C@H](c2ccc3c(c2)OCO3)[C@@H](C(=O)O)[C@@H]1c1ccc(OC)c(F)c1 (stereo in doubt; 14a) | 1 |  |  |  |
| CCCN(CCN1C[C@H](c2ccc3c(c2)OCO3)[C@@H](C(=O)O)[C@@H]1c1ccc(OC)cc1)S(=O)(=O)CC | 95 | 1.2 | 79 |  |

| Structure (SMILES) | IC50 [1] [nM] | IC50 (Endothelin-1 receptor) [nM] | Ratio [2] | also measured |
| --- | --- | --- | --- | --- |
| CCCN(CCN1C[C@H](c2ccc3c(c2)OCO3)[C@@H](C(=O)O)[C@@H]1c1ccc(OC)cc1)S(=O)(=O)CCOC | 77 | 5.2 | 15 |  |
| CCCN(CCN1C[C@H](c2ccc3c(c2)OCO3)[C@@H](C(=O)O)[C@@H]1c1ccc(OC)cc1)S(=O)(=O)c1ccccc1 | 210 | 1.4 | 150 |  |
| CCCCCS(=O)(=O)N(CCC)CCN1C[C@H](c2ccc3c(c2)OCO3)[C@@H](C(=O)O)[C@@H]1c1ccc2c(c1)OCCO2 | 7 | 0.66 | 10 |  |
| CCCN(CCN1C[C@H](c2ccc3c(c2)OCO3)[C@@H](C(=O)O)[C@@H]1c1ccc(OC)c(F)c1)S(=O)(=O)CC(C)C | 1.6 | 0.21 | 7.6 |  |
| CCCCCS(=O)(=O)N(CCC)CCN1C[C@H](c2ccc3c(c2)OCO3)[C@@H](C(=O)O)[C@@H]1c1ccc(OCC)c(F)c1 | 2.6 | 1.3 | 2 |  |
| CCCCN(CCN1C[C@H](c2ccc3c(c2)OCO3)[C@@H](C(=O)O)[C@@H]1c1ccc(OC)cc1)S(=O)(=O)CCC | 60 | 2 | 30 |  |
| CCCN(CCN1C[C@H](c2ccc3c(c2)OCO3)[C@@H](C(=O)O)[C@@H]1c1ccc(OC)c(F)c1)S(=O)(=O)Cc1ccccc1 | 2.9 | 2.7 | 1.1 |  |
| CCCCS(=O)(=O)N(CCC)CCN1C[C@H](c2ccc3c(c2)OCO3)[C@@H](C(=O)O)[C@@H]1c1ccc(OC)cc1 | 9.4 | 2 | 4.7 |  |
| CCCS(=O)(=O)N(CCN1C[C@H](c2ccc3c(c2)OCO3)[C@@H](C(=O)O)[C@@H]1c1ccc(OC)cc1)CC(C)C | 62 | 8.1 | 7.7 |  |
| CCCCCS(=O)(=O)N(CCC)CCN1C[C@H](c2ccc3c(c2)OCO3)[C@@H](C(=O)O)[C@@H]1c1ccc(F)c(F)c1 | 68 | 18 | 3.8 |  |
| CCCN(CCN1C[C@H](c2ccc3c(c2)OCO3)[C@@H](C(=O)O)[C@@H]1c1ccc(OC)cc1)S(=O)(=O)c1ccc(OC)cc1 | 66 | 0.53 | 120 |  |
| CCCN(CCN1C[C@H](c2ccc3c(c2)OCO3)[C@@H](C(=O)O)[C@@H]1c1ccc(OC)c(F)c1)S(=O)(=O)CCCCl (stereo in doubt; 14e) [listing 1 of 2 here] |  |  | 2.5 |  |
| CCCCCS(=O)(=O)N(CCC)CCN1C[C@H](c2ccc3c(c2)OCO3)[C@@H](C(=O)O)[C@@H]1c1ccc(OCCC)cc1 | 610 | 48 | 13 |  |
| CCCN(CCN1C[C@H](c2ccc3c(c2)OCO3)[C@@H](C(=O)O)[C@@H]1c1ccc(OC)c(F)c1)S(=O)(=O)CCCCl (stereo in doubt; 14e) [listing 2 of 2 here] | 1 | 0.4 |  |  |
| CCCN(CCN1C[C@H](c2ccc3c(c2)OCO3)[C@@H](C(=O)O)[C@@H]1c1ccc(OC)cc1)S(=O)(=O)CCC | 36 | 1.6 | 22 |  |
| CCCCCCCS(=O)(=O)N(CCC)CCN1C[C@H](c2ccc3c(c2)OCO3)[C@@H](C(=O)O)[C@@H]1c1ccc(OC)cc1 | 57 | 5.1 | 11 |  |
| CCCN(CCN1C[C@H](c2ccc3c(c2)OCO3)[C@@H](C(=O)O)[C@@H]1c1ccc(OC)c(F)c1)S(=O)(=O)CCCC(F)(F)F (stereo in doubt; 14f) | 0.98 |  |  |  |
| CCCN(CCN1C[C@H](c2ccc3c(c2)OCO3)[C@@H](C(=O)O)[C@@H]1c1ccc(OC)cc1)S(=O)(=O)CC(C)C | 5.2 | 0.78 | 6.6 |  |
